We go through two compounds from US20080009448A1, “Peptide Derivative” (priority 2006, published 2008).

Assay [1] deals with nerve damage model animal. The assay can be described thus: Allodynia experiment, nerve damage model (partial sciatic nerve ligation), Von Frey filament method. The class given is in vivo, mouse. The following applies: for anti-allodynia effect in animals with ligated sciatic nerve: s.c. administration, Von Frey filament. As to the method:
Further the anti-nociceptive activity test using a nerve damage model envisioning a neuropathic pain was performed.
Preparation of the Nerve-Damage Model was Conducted According to the model created by Seltzer (partial sciatic nerve ligation: RSL model).
Specifically the amount of 0.1 mL/10 g of Nembutal solution 7 times diluted with Ringer's solution (Fuso Pharmaceutical Kogyo) was injected into the peritoneal cavity of mouse using 26 gauge needle (Termo) to give anesthetic. The animal was lain on its stomach, its femoral skin was cut open to incise through the fascia, the part between the heads of the biceps femoris was cut and then its sciatic nerve was fixed. The ⅓ to ½ part of the […] around the sciatic nerve detached without damaging was completely ligated with a nylon suture thread No. 9 (Natsume Seisakusho) using a vascular needle 000 spring hole (Natsume Seisakusho). Further the cut skin was sutured with the silk thread No. 2 (Natsume Seisakusho) using a surgical needle 1 spring needle (Natsume Seisakusho). After the operation, the mice had been kept until the testing date under the above conditions.
The measurement of allodynia effect on the nerve-damage model animals was conducted according to the Von Frey filament method 7 days after the nerve ligation.
Then a few kinds of filaments having different strength of stimulus (Touch-test Sensory Evaluator Instruction North Coast Medical Inc.) were pushed perpendicularly on the sole of the hinder leg until the filament was bent.
Further, for comparison, the left lower leg of the animal without nerve-damage was also stimulated and the threshold values were measured. AUCs (the area surrounded with the time-reaction curve and the base line of a graph showing the relationship between the time after administration (time-course) and % MPE) were calculated from the obtained results. Antiallodynia activity obtained from the AUC divided by the measuring time was compared as strength of activity per unit of the time period.

Assay [2] has as its system MSU induced knee osteoarthritis pain. The assay can be described thus: MSU induced knee osteoarthritis pain model, hind leg paw-pressure ratio. Type of assay: in vivo, rat. Also on record: key to AUC of time-course variation of anti-nociceptive activity: AUC of the time course of anti-nociceptive activity as % MPE. The settings on record: for activity lasting-time: orally administered. On the procedure:
Experimental animal, male SD type rats, weighing the body weight in the range of 170 to 190 g, were used for the studies. The animals had been kept under constant conditions (room temperature 23±1° C., humidity 52±2%, 12 hours light-and-dark cycle having light time 7:00 to 19:00 and dark time 19:00 to 7:00) until used for an experiment. The animals were fed the mouse solid diet (F2, Funabashi farm. Funabashi, Japan) with unrestricted tap water intake, and kept in captivity for at least more than two days in a laboratory.
Any test drugs were dissolved in Ringer's solution (Fuso Yakuhin) to be used.
MSU was suspended with the suspension solution (10% of polyoxyethylene sorbitan mono-oleate (Tween 80: Nakarai Tesk) as 0.1 g per 1 mL. The animal was anesthetized with diethyl ether and after the surface of its left hind leg knee joint was wiped with 70% ethanol cotton, a porous administration of the suspension solution above noted was conducted into the cavity of let hind leg knee joint.
Pressures to both hind leg paw were measured using a paw-pressure measurement apparatus and recorded. Measurement time at respective times was 4.5 seconds. Calculated paw-pressure ratio (ppr) is a value calculated by dividing the pressure on the left hind leg by the pressure on the right hind leg according to the measured pressures on both hind legs.
The anti-nociceptive effect was evaluated quantitatively by calculating % MPE (% of maximum possible effect) according to the following formula. [formula]
In the formula, ppr 0 and ppr 1 are respective paw-pressure ratios on both hind legs before and after administration. ED50 value of anti-nociceptive activity was calculated using GraphPad Prism data-graph processing software version 4.0, San Diego, Calif., USA.
The strength of anti-nociceptive activity was represented by calculating the time-course variation of anti-nociceptive activity AUC using GraphPad Prism noted above.
Paw-pressure was measured twice at 4 hours after administration to provide ppr by calculation and the average of those values was both hind leg paw-pressure ratio before the drug administration. After the measurement of both hind leg paw-pressure before the drug administration, 0.1 mL of Ringer's solution or a test drug in Ringer's solution per 100 g rat body weight was orally administered, and then a paw-pressure was measured once every unit time after the oral administration.
Statistical processing was conducted using GraphPad Prism. After the two-way layout dispersion analysis, the hazard-ratio of P<0.05 was decided to be a significant difference according to Bonferroni post-test. The hazard-ratios were distinguished into less than 5% (P<0.05) and less than 1% (P<0.01) and represented as “*” and “**” in the same manner conducted for the Tail-flick method.

Where [3] appears, read: rat, MSU knee model, oral 15 mg/kg.
Setting [4] is: rat, MSU knee model, oral 30 mg/kg.

Consider `CN1CC[C@]23c4c5ccc(O)c4O[C@H]2[C@@H](O)C=C[C@H]3[C@H]1C5` [Morphine], for which, in assay [1], the “anti-allodynia effect in animals with ligated sciatic nerve” value was “significantly decreased”. Besides, the activity peak in assay [2] (rat, MSU knee model, oral) was 90 min. Moreover, the “AUC of time-course variation of anti-nociceptive activity” value is given as 1724 in assay [2] (setting [3]); 4485 in assay [2] (setting [4]); 13883 in assay [2] (rat, MSU knee model, oral 60 mg/kg). Moreover, in assay [2] (rat, MSU knee model, oral, %MPE, range in parentheses, read-out: ED50 value at activity peak), the ED50 turned out to be 37.2 mg/kg. The activity lasting-time in assay [2] (rat, MSU knee model) turned out to be 300 min.

With “Iminoethyl-[Tyr]-[D-Met(O)]-[Phe]-[N-MeβAla]-NHCH3 [SS8225-07]”, in assay [1] (nerve damage model, s.c., at dose of equal activity), the “lasting period of anti-nociceptive activity compared with morphine” value is “about twice longer”. Besides, the “anti-allodynia effect in animals with ligated sciatic nerve” value in assay [1] is on record as “decrease of anti-allodynia effect was not observed at any doses”. Further, the “anti-nociceptive activity compared with morphine and oxycodone” value in assay [2] (knee osteoarthritis model, FIGS. 77 and 78) was “stronger than morphine, and stronger than or equal to oxycodone”. In addition, the “activity lasting-time, times longer than for morphine” value in assay [2] (rat, MSU knee model, oral) amounted to 1.2 times. Also, the activity peak in assay [2] (rat, MSU knee model, oral) amounted to 120 min. In addition, the “AUC of time-course variation of anti-nociceptive activity” value in assay [2] (rat, MSU knee model, oral 7.5 mg/kg) amounted to 2919; in assay [2] (setting [3]), 7894; in assay [2] (setting [4]), 20162. The “ED50 value at activity peak” value in assay [2] (rat, MSU knee model, oral, %MPE, range in parentheses) was 16.95 (3.17-90.59) mg/Kg. In assay [2] (rat, MSU knee model, oral, from ED50 of AUCs), the “anti-nociceptive activities, times stronger than for morphine” value is approximately 2.1 times. Besides, the “ED50 of AUCs” value in assay [2] (rat, MSU knee model, oral, range in parentheses) is listed as 40.38 (31.08-52.48) mg/kg. Moreover, in assay [2] (rat, MSU knee model, oral, stated after ED50 at activity peak), the “anti-nociceptive activity lasting-times, times longer than for morphine” value came to 2.2 times. In addition, the activity lasting-time in assay [2] (rat, MSU knee model) worked out at 360 min.

By ED50 is commonly meant the dose that gives a 50% effect, or the effect in half of the subjects.
